Reference: patent US20140378424A1, “ESTROGEN RECEPTOR MODULATORS FOR REDUCING BODY WEIGHT” (RosScreening, Inc., priority 2011, published 2014)

Key:
[1] = Example 4: 8 week weight loss experiment in obese mice, compounds via drinking water; assay type: in vivo, Male C57BL6/J mice; settings: obese mice on high-fat diet, 8 weeks, most compounds 0.5 and 2.5 mg/kg/day, hexestrol 0.125 to 2 mg/kg/day
Procedure: An 8 week experiment was performed to investigate the ability of various estrogen modulating compounds to induce weight loss in obese mice. Male C57BL6/J mice were placed on a high fat diet for approximately 12 weeks prior to the study and initiated in the experiment at 18 weeks of age. Obese mice were allocated into cohorts of 6 mice per compound and housed at a density of 3 per cage. Over 8 weeks, mice were placed on a high-fat diet ad libitum and compounds were provided via drinking water. Most compounds were assigned to two treatment groups with doses of 0.5 mg/kg/day and 2.5 mg/kg/day. Hexestrol was assigned to 5 treatment groups ranging between 0.125 mg/kg/day and 2 mg/kg/day. Weight measurements of each mouse were taken once per week over 8 weeks.

[2] = Example 1 Phase 1: prevention of weight gain in lean mice placed on high fat diet, drug via drinking water for 8 weeks; assay type: in vivo, Male C57BL6/J mice; settings: for lean mouse body weight accumulation over the 8 week period: drug in drinking water, vs control mice
Procedure: (§1) Male C57BL6/J mice were tested as follows. The animal room was lighted entirely with artificial fluorescent lighting on controlled 12 hr light/dark cycle (6 a.m. to 6 p.m. light). The normal temperature and relative humidity ranges in the animal rooms were maintained at 22±4° C. and 50±15%, respectively. The animal room was set for 15 air exchanges per hour. Filtered tap water acidified to a pH of 2.5 to 3.0 was provided ad libitum. High fat diet was provided ad libitum.
After a 1 week acclimation, the mice were grouped into cohorts of 6 mice each. 6 DIO (diet induced obesity) and 6 lean C57BL6/J mice were used as naïve controls. Each drug was administered via drinking water for 8 weeks. The drug containing drinking water solutions were made fresh weekly. Water intake, food intake, and body weights were recorded weekly.
This experiment was run in two phases, Phase 1 (prevention of weight gain in lean mice) and Phase 2 (weight loss in obese mice). In the phase 1 experiment, the mice were placed on high fat diet at the same time administration of the drug was initiated. In the phase 2 experiment, drug treatment was initiated on 18 week old mice, which were previously on a high fat diet for approximately 12 weeks. In addition to the measurements noted above, a single DEXA Scan analysis was ran on the mice in Phase 2. After treatment, mice underwent body tissue composition analysis by Echo MRI (NMR) to measure their fat and lean mass content.
(§2) Body weight change was calculated for each mouse by subtracting the body weight on the first day of dosing (baseline) from the body weight on the last day of dosing (final) and calculating the percent change from baseline body weight: [=100*(Final Weight−BaselineWeight)/BaselineWeight]. Average percent body weight change was then calculated for each treatment group. Error bars represent standard error of the mean (SEM).
Food intake per mouse per day was calculated based on food intake per cage. Mean food intake for each treatment group was then calculated weighted by the number of mice per cage. Similarly, water intake per mouse per day was calculated based on water intake per cage. Mean water intake for each treatment group was then calculated weighted by the number of mice per cage.
In both phase 1 and 2 studies, the drugs were administered through the water given to the mice. The concentration of each drug in the water is provided below:
Diethylstilbestrol: 2 mg/500 mL (1 mg/kg/day)
Raloxifene: 20 mg/500 mL (10 mg/kg/day)
Tamoxifen: 4 mg/500 mL (2 mg/kg/day)
Clomiphene: 10 mg/500 mL (5 mg/kg/day)
Hexestrol: 4 mg/500 mL (2 mg/kg/day)
A mouse typically drinks about 5 mL of water a day.
Phase 1 (Prevention of Weight Gain in Lean Mice)

[3] = Example 1 Phase 2: weight loss in obese mice, drug via drinking water for 8 weeks; assay type: in vivo, Male C57BL6/J mice
Procedure: as §1
After a 1 week acclimation, the mice were grouped into cohorts of 6 mice each. 6 DIO (diet induced obesity) and 6 lean C57BL6/J mice were used as naïve controls. Each drug was administered via drinking water for 8 weeks. […] Water intake, food intake, and body weights were recorded weekly. […]
as §2, with “Error bars represent standard error of the mean (SEM).” left out
Food intake per mouse per day was calculated based on food intake per cage. Mean food intake for each treatment group was then calculated weighted by the number of mice per cage. Similarly, water intake per mouse per day was calculated based on water intake per cage. […]

[4] = Example 3: 8 week weight loss experiment in obese mice, compound in drinking water or feed; assay type: in vivo, male C57BL6/J mice; settings: for body weight in comparison to controls / body weight reduction from controls: 8 weeks; for fat tissue mass (NMR body composition analysis): after 8 weeks
Procedure: (§3) An 8 week long weight loss experiment was performed on obese 18 week old male C57BL6/J mice having been on a high fat diet for approximately 12 weeks. The estrogen modulating compound treatment groups (hexestrol, clomiphene, raloxifene, and tamoxifen) were either provided in drinking water or feed. Obese mice were allocated into cohorts of 6 mice per compound per treatment type and housed at a density of 1 mouse per cage. Water treatment group mice were placed on a high fat diet ad libitum with compound provided via drinking water. Each feed treatment group received a specially formulated high fat diet containing their corresponding compound ad libitum and normal drinking water. Weight measurements of each mouse were taken twice per week over 8 weeks. Food intake per mouse per day was also recorded.
(§4) At the end of 8 weeks mice underwent a body tissue composition analysis by Echo MRI (NMR), an intraperitoneal glucose tolerance test (IPGTT), and an oral glucose tolerance test (OGTT). For IPGTT, each mouse received an intraperitoneal glucose solution injection of 1 g glucose/kg body weight. Serum glucose concentration was measured pre-injection, and 30, 60, and 90 minutes post-injection. For OGTT, each mouse received an oral glucose solution dose of 1 g glucose/kg body weight. Serum glucose was measured before the oral dose, and 15, 30, 90, and 120 minutes after oral dose.

[5] = Example 3: intraperitoneal glucose tolerance test (IPGTT) in obese mice after 8 weeks of treatment; assay type: in vivo, male C57BL6/J mice; settings: hexestrol water treated mice, 1 mg/kg/day
Procedure: as §3, §4

[6] = Example 3: oral glucose tolerance test (OGTT) in obese mice after 8 weeks of treatment; assay type: in vivo, male C57BL6/J mice; settings: hexestrol water treated mice, 1 mg/kg/day, 1 g glucose/kg oral
Procedure: as §3, §4

Row | SMILES | body weight in comparison to the control group [1] | lean mouse body weight accumulation over the 8 week period [2] | body weight in comparison to controls ([4]; feed treatment group) | body weight in comparison to controls ([4]; water treatment group) | fat tissue mass (NMR body composition analysis) ([4]; feed treated mice) | also measured
1 | C[C@]12CC[C@@H]3c4ccc(O)cc4CC[C@H]3[C@@H]1CC[C@@H]2O [17β-estradiol] | significant reduction |  |  |  |  | 
2 | C/C=C(/C(=C/C)c1ccc(O)cc1)c1ccc(O)cc1 [Dienestrol, dienestrol] | significant reduction |  |  |  |  | 
3 | CCN(CC)CCOc1ccc(C(=C(Cl)c2ccccc2)c2ccccc2)cc1 [clomiphene] |  | significant decrease | significant reduction | significant reduction | significant decrease | change in body weight ([3]; 8 weeks, clomiphene 5 mg/kg/day in drinking water): significant; fat tissue mass (NMR body composition analysis) ([3]; after 8 weeks, in comparison to control mice): reduction in fat tissue mass
4 | CC/C(=C(/CC)c1ccc(O)cc1)c1ccc(O)cc1 [diethylstilbestrol] |  | significant decrease |  |  |  | 
5 | CC[C@H](c1ccc(O)cc1)[C@@H](CC)c1ccc(O)cc1 [hexestrol] | significant reduction | significant decrease | significant reduction | significant reduction | significant decrease | reduction of body weight accumulation from control mice ([2]; 8 weeks, hexestrol 2 mg/kg/day in drinking water): 35.0±11.3%; body weight reduction from controls ([4]; feed treatment group): 31.7±4.5%; body weight reduction from controls ([4]; water treatment group): 30.8±9.7%; fat tissue mass (NMR body composition analysis) ([4]; water treated mice): significant decrease; serum glucose concentration upon injection of the glucose solution (IPGTT) ([5]; 1 g glucose/kg intraperitoneal, up to 90 minutes post-injection): remains static; starting serum glucose concentration (IPGTT) ([5]; pre-injection, in comparison to controls): significantly lower; increase of serum glucose concentration upon an oral dose of glucose (OGTT) ([6]; in comparison to controls): increases to a lesser amount; time at which serum glucose returns back to baseline (OGTT) ([6]; post-dose): ≤ 90 min
6 | O=C(c1ccc(OCCN2CCCCC2)cc1)c1c(-c2ccc(O)cc2)sc2cc(O)ccc12 [raloxifene] |  | significant decrease | significant reduction | significant reduction |  | 
7 | CC/C(=C(\c1ccccc1)c1ccc(OCCN(C)C)cc1)c1ccccc1 [tamoxifen] |  | significant decrease | significant reduction | significant reduction | significant decrease | fat tissue mass (NMR body composition analysis) ([4]; water treated mice): significant decrease
8 | CN(C)CCOc1ccc(/C(=C(/CCCl)c2ccccc2)c2ccccc2)cc1 [toremifene] | significant reduction |  |  |  |  | 
